Experimental data: ChEMBL document CHEMBL1649193, “Statins as potential antimalarial drugs: low relative potency and lack of synergy with conventional antimalarial drugs” (Antimicrob Agents Chemother, 2009)

Assays:
Assay type in all cases: functional, organism-based
[1] = tested on: Plasmodium falciparum; test: Antimalarial activity against chloroquine-sensitive Plasmodium falciparum 3D7 assessed as Plasmodium lactate dehydrogenase release after 48 hrs by colorimetry; conditions: 3D7, 48 h
[2] = tested on: Plasmodium falciparum; test: Antimalarial activity against chloroquine-resistant Plasmodium falciparum Dd2 assessed as Plasmodium lactate dehydrogenase release after 48 hrs by colorimetry; conditions: Dd2, 48 h
[3] = tested on: Plasmodium falciparum; test: Antimalarial activity against chloroquine-resistant Plasmodium falciparum E8B assessed as Plasmodium lactate dehydrogenase release after 48 hrs by colorimetry

SMILES | IC50 [1] [µM] | IC90 [1] [µM] | IC50 [2] [µM] | IC90 [2] [µM] | IC50 [3] [µM] | IC90 [3] [µM]
CC(C)c1c(C(=O)Nc2ccccc2)c(-c2ccccc2)c(-c2ccc(F)cc2)n1CC[C@@H](O)C[C@@H](O)CC(=O)O [ATORVASTATIN] | 25 | 68 | 17 | 39 | 17 | 39
CC(C)c1nc(N(C)S(C)(=O)=O)nc(-c2ccc(F)cc2)c1/C=C/[C@@H](O)C[C@@H](O)CC(=O)O [ROSUVASTATIN] | 80 | 205 | 80 | 232 | 80 | 232
